# Results taken from patent US10273226B2, “Pyrazolyl-heteroarylamides as pesticides” (Bayer Animal Health GmbH, priority 2014, dated 2019).
# Tested on: Ctenocephalides felis
# Test: Ctenocephalides felis in vitro contact test with adult cat fleas
# Type: in vivo
# Settings: application rate 5 μg/cm^2 (500 g/ha); after 48 h; fleas dead or moribund
# Method in brief: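 Adult Ctenocephalides felis (5-10 per tube) were held 48 h at room temperature in tubes whose inner walls carried dried active ingredient, e.g. 5 μg/cm^2 from a 900 ppm acetone coating. Percent efficacy reflects fleas motionless or uncoordinated after being knocked to the tube base.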
row,SMILES,efficacy [%]
1,Cn1nc(C(F)(F)C(F)(F)F)c(C(F)(F)F)c1-n1cc(-c2ccc(F)c(NC(=O)c3ccnc(F)c3)c2)cn1 [Example 1-089],100
2,CN(C(=O)c1ccc(F)cc1)c1cc(-c2cnn(-c3c(C(F)(F)F)c(C(F)(F)C(F)(F)F)nn3C)c2)ccc1F [Example 1-037],100
3,Cn1nc(C(F)(F)C(F)(F)F)c(C(F)(F)F)c1-n1cc(-c2ccc(F)c(NC(=O)c3ccccc3)c2)cn1 [Example 1-026],100

# Tested on: Rhipicephalus sanguineus
# Test: Rhipicephalus sanguineus in vitro contact test with adult brown dog ticks
# Type: in vivo
# Settings: application rate 5 μg/cm^2 (500 g/ha); after 48 h; ticks dead or moribund
# Method in brief: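 Test tubes (25 ml) were coated by dissolving active ingredient in acetone p.a., diluting to the required concentration, and spreading 250 μl over the inner walls and base on an orbital shaker at 30 rpm for 2 h. Once dry, 5-10 adult Rhipicephalus sanguineus were added, and tubes were capped with perforated lids and kept horizontal in darkness at room temperature. At 48 h, ticks were knocked down and heated at 45-50° C. for up to 5 min. Those unable to climb away were counted dead or moribund, and efficacy ran from 0% to 100%.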
row,SMILES,efficacy [%]
1,Cn1nc(C(F)(F)C(F)(F)F)c(C(F)(F)F)c1-n1cc(-c2ccc(F)c(NC(=O)c3ccnc(F)c3)c2)cn1 [Example 1-089],100
2,Cn1nc(C(F)(F)C(F)(F)F)c(C(F)(F)F)c1-n1cc(-c2ccc(F)c(NC(=O)c3ccccc3)c2)cn1 [Example 1-026],100

# Tested on: Boophilus microplus Parkhurst strain, SP-resistant
# Test: Boophilus microplus dip test
# Type: in vivo
# Settings: application rate 100 ppm, assessed after 7 days
# Method: Boophilus microplus—Dip Test
# Test animals: cattle ticks (Boophilus microplus) Parkhurst strain, SP-resistant
# Solvent: dimethyl sulphoxide
# 10 mg of active ingredient are dissolved in 0.5 ml of dimethyl sulphoxide. For the purpose of producing a suitable formulation, the active ingredient solution is diluted with water to the concentration desired in each case.
# This active ingredient formulation is pipetted into tubes. 8-10 adult engorged female cattle ticks (Boophilus microplus) are transferred into a further tube with holes. The tube is immersed into the active ingredient formulation, and all the ticks are completely wetted. After the liquid has run out, the ticks are transferred on filter discs into plastic dishes and stored in a climate-controlled room.
# Efficacy is assessed after 7 days by laying of fertile eggs. Eggs which are not visibly fertile are stored in a climate-controlled cabinet until the larvae hatch after about 42 days. An efficacy of 100% means that none of the ticks has laid any fertile eggs; 0% means that all the eggs are fertile.
row,SMILES,efficacy (laying of fertile eggs) [%]
1,Cn1nc(C(F)(F)C(F)(F)F)c(C(F)(F)F)c1-n1cc(-c2ccc(F)c(NC(=O)c3ccnc(F)c3)c2)cn1 [Example 1-089],100
2,CN(C(=O)c1ccc(F)cc1)c1cc(-c2cnn(-c3c(C(F)(F)F)c(C(F)(F)C(F)(F)F)nn3C)c2)ccc1F [Example 1-037],80
3,Cn1nc(C(F)(F)C(F)(F)F)c(C(F)(F)F)c1-n1cc(-c2ccc(F)c(NC(=O)c3ccccc3)c2)cn1 [Example 1-026],100

# Tested on: Boophilus microplus
# Test: Boophilus microplus injection test
# Type: in vivo
# Settings: application rate 20 μg/animal; injection into abdomen; assessed after 7 days
# Method in brief: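 Scoring was by fertile egg laying 7 days after injection, holding doubtful eggs until larvae hatched at about 42 days; 100% = no fertile eggs, 0% = all eggs fertile. Groups of 5 engorged adult female cattle ticks were each injected abdominally with 1 μl of compound in DMSO.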
row,SMILES,efficacy (laying of fertile eggs) [%]
1,Cn1nc(C(F)(F)C(F)(F)F)c(C(F)(F)F)c1-n1cc(-c2ccc(F)c(NC(=O)c3ccnc(F)c3)c2)cn1 [Example 1-089],100
2,CN(C(=O)c1ccc(F)cc1)c1cc(-c2cnn(-c3c(C(F)(F)F)c(C(F)(F)C(F)(F)F)nn3C)c2)ccc1F [Example 1-037],100
3,Cn1nc(C(F)(F)C(F)(F)F)c(C(F)(F)F)c1-n1cc(-c2ccc(F)c(NC(=O)c3ccccc3)c2)cn1 [Example 1-026],100

# Tested on: Ctenocephalides felis
# Test: Ctenocephalides felis oral test
# Type: in vivo
# Settings: application rate 100 ppm in citrated cattle blood; after 2 days
# Method in brief: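 DMSO stock, diluted in citrated cattle blood; ~20 unfed adult fleas feed through parafilm; % kill read at day 2 (0% = none killed).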
row,SMILES,efficacy (kill in %) [%]
1,Cn1nc(C(F)(F)C(F)(F)F)c(C(F)(F)F)c1-n1cc(-c2ccc(F)c(NC(=O)c3ccnc(F)c3)c2)cn1 [Example 1-089],100
2,CN(C(=O)c1ccc(F)cc1)c1cc(-c2cnn(-c3c(C(F)(F)F)c(C(F)(F)C(F)(F)F)nn3C)c2)ccc1F [Example 1-037],100
3,Cn1nc(C(F)(F)C(F)(F)F)c(C(F)(F)F)c1-n1cc(-c2ccc(F)c(NC(=O)c3ccccc3)c2)cn1 [Example 1-026],100

# Tested on: Lucilia cuprina
# Test: Lucilia cuprina test
# Type: in vivo
# Settings: application rate 100 ppm; L1 larvae; after 2 days
# Method in brief: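 Mortality read at 2 days as percent larvae killed (100% = all, 0% = none). Test used roughly 20 first-instar larvae on minced horsemeat dosed with water-diluted DMSO formulation of compound.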
row,SMILES,efficacy (kill in %) [%]
1,Cn1nc(C(F)(F)C(F)(F)F)c(C(F)(F)F)c1-n1cc(-c2ccc(F)c(NC(=O)c3ccnc(F)c3)c2)cn1 [Example 1-089],100
2,CN(C(=O)c1ccc(F)cc1)c1cc(-c2cnn(-c3c(C(F)(F)F)c(C(F)(F)C(F)(F)F)nn3C)c2)ccc1F [Example 1-037],100
3,Cn1nc(C(F)(F)C(F)(F)F)c(C(F)(F)F)c1-n1cc(-c2ccc(F)c(NC(=O)c3ccccc3)c2)cn1 [Example 1-026],100

# Tested on: Musca domestica
# Test: Musca domestica test
# Type: in vivo
# Settings: application rate 100 ppm; adult houseflies; after 2 days
# Method in brief: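 10 adult flies per vessel; sugar-solution sponge dosed with active ingredient formulation (DMSO concentrate diluted in water to desired concentration). Read-out: % kill at 2 days.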
row,SMILES,efficacy (kill in %) [%]
1,Cn1nc(C(F)(F)C(F)(F)F)c(C(F)(F)F)c1-n1cc(-c2ccc(F)c(NC(=O)c3ccnc(F)c3)c2)cn1 [Example 1-089],100
2,CN(C(=O)c1ccc(F)cc1)c1cc(-c2cnn(-c3c(C(F)(F)F)c(C(F)(F)C(F)(F)F)nn3C)c2)ccc1F [Example 1-037],90
3,Cn1nc(C(F)(F)C(F)(F)F)c(C(F)(F)F)c1-n1cc(-c2ccc(F)c(NC(=O)c3ccccc3)c2)cn1 [Example 1-026],90

# Tested on: Myzus persicae
# Test: Myzus persicae spray test
# Type: in vivo
# Settings: application rate 100 g/ha; after 6 days
# Method: Myzus persicae—Spray Test
# To produce an appropriate active ingredient formulation, 1 part by weight of active ingredient is dissolved using the specified parts by weight of solvent and made up with water containing an emulsifier concentration of 1000 ppm until the desired concentration is attained. To produce further test concentrations, the preparation is diluted with emulsifier-containing water.
# Discs of Chinese cabbage leaves (Brassica pekinensis) infested by all stages of the green peach aphid (Myzus persicae) are sprayed with an active ingredient formulation of the desired concentration.
# After 6 days, efficacy in % is determined. 100% means that all the aphids have been killed; 0% means that none of the aphids have been killed.
row,SMILES,efficacy [%]
1,Cn1nc(C(F)(F)C(F)(F)F)c(C(F)(F)F)c1-n1cc(-c2ccc(F)c(NC(=O)c3ccnc(F)c3)c2)cn1 [Example 1-089],90
2,Cn1nc(C(F)(F)C(F)(F)F)c(C(F)(F)F)c1-n1cc(-c2ccc(F)c(NC(=O)c3ccccc3)c2)cn1 [Example 1-026],100

# Tested on: Phaedon cochleariae
# Test: Phaedon cochleariae spray test
# Type: in vivo
# Settings: application rate 100 g/ha; larvae; after 7 days
# Method in brief: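 Mortality of Phaedon larvae, in %, was read 7 days after release onto sprayed, dried Brassica pekinensis leaf discs. Test dilutions were prepared in water with 1000 ppm emulsifier. A score of 0% means no larvae died and 100% means all were killed.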
row,SMILES,efficacy [%]
1,Cn1nc(C(F)(F)C(F)(F)F)c(C(F)(F)F)c1-n1cc(-c2ccc(F)c(NC(=O)c3ccnc(F)c3)c2)cn1 [Example 1-089],100
2,CN(C(=O)c1ccc(F)cc1)c1cc(-c2cnn(-c3c(C(F)(F)F)c(C(F)(F)C(F)(F)F)nn3C)c2)ccc1F [Example 1-037],100
3,Cn1nc(C(F)(F)C(F)(F)F)c(C(F)(F)F)c1-n1cc(-c2ccc(F)c(NC(=O)c3ccccc3)c2)cn1 [Example 1-026],100

# Tested on: Spodoptera frugiperda
# Test: Spodoptera frugiperda spray test
# Type: in vivo
# Settings: application rate 100 g/ha; caterpillars; after 7 days
# Method in brief: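 Percent kill of armyworm caterpillars was scored 7 days after they were placed on dried, sprayed Zea mays leaf discs. Spray solutions were made by dissolving active ingredient in solvent and diluting with 1000 ppm emulsifier water.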
row,SMILES,efficacy [%]
1,Cn1nc(C(F)(F)C(F)(F)F)c(C(F)(F)F)c1-n1cc(-c2ccc(F)c(NC(=O)c3ccnc(F)c3)c2)cn1 [Example 1-089],100
2,CN(C(=O)c1ccc(F)cc1)c1cc(-c2cnn(-c3c(C(F)(F)F)c(C(F)(F)C(F)(F)F)nn3C)c2)ccc1F [Example 1-037],100
3,Cn1nc(C(F)(F)C(F)(F)F)c(C(F)(F)F)c1-n1cc(-c2ccc(F)c(NC(=O)c3ccccc3)c2)cn1 [Example 1-026],100

# Tested on: Tetranychus urticae
# Test: Tetranychus urticae spray test, OP-resistant
# Type: in vivo
# Settings: application rate 100 g/ha; after 6 days
# Method in brief: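 Percent kill is assessed 6 days after spraying infested Phaseolus vulgaris leaf discs, with all mite stages present. Compound is applied as a solvent/emulsifier aqueous formulation at the desired concentration.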
row,SMILES,efficacy [%]
1,Cn1nc(C(F)(F)C(F)(F)F)c(C(F)(F)F)c1-n1cc(-c2ccc(F)c(NC(=O)c3ccnc(F)c3)c2)cn1 [Example 1-089],100
2,Cn1nc(C(F)(F)C(F)(F)F)c(C(F)(F)F)c1-n1cc(-c2ccc(F)c(NC(=O)c3ccccc3)c2)cn1 [Example 1-026],100
